Experiments:
Assay type in all cases: in vivo
[1] = tested on: Echinochloa crus-galli (L.) P. Beauv. var. formosensis Ohwi; assay: Test for Herbicidal Effect in Flooding Treatment (#1), ECHDG; details: for ECHDG #1 herbicidal effect (growth inhibition grade): flooding treatment at seeding, dose 2 kg/ha, visual observation on day 21; for ECHDG #1 herbicidal effect (growth inhibition rating 0-5): flooding treatment #1
Description: (§1) (#1) Test for Herbicidal Effect in Flooding Treatment: Styrol cups each having an opening diameter of 8 cm (about 52 cm^2) were respectively filled with soil (45 ml) which had been passed through a sieve (2 mm). Water (about 115 ml) was mixed with the soil such that the soil was flooded. After the soil stood still for 24 hours, Monochoria vaginalis, Echinochloa crus-galli (L.) P. Beauv. var. formosensis Ohwi, Cyperus difformis (umbrella sedge), and Scirpus juncoides were seeded. Each of the compounds of the present invention was dissolved in acetone, and the obtained product was then diluted with water containing Tween 80®. Each of the resultant chemical solutions was dropped on the entire surface of an associated one of treatment sections, so that each section was treated with 1 ml of the respective chemical solution (a dose of 2 kg/ha). After the treatment, the plants were grown in a glasshouse. On day 21, a survey was conducted on the herbicidal activity by visual observation, and evaluation was made according to the following criteria. 0: Growth inhibition effect is less than 10%. 1: Growth inhibition effect is equal to or greater than 10%, and less than 30%. 2; Growth inhibition effect is equal to or greater than 30%, and less than 50%. 3: Growth inhibition effect equal to or greater than 50%, and less than 70%. 4: Growth inhibition effect is equal to or greater than 70%, and less than 90%. 5: Growth inhibition effect is equal to or greater than 90%, or complete withering is achieved. ECHDG=Echinochloa crus-galli (L.) P. Beauv. var. formosensis Ohwi, MONVA=Monochoria vaginalis, SCIJU=Scirpus juncoides, CYMIC=Cyperus microiria.

[2] = tested on: Echinochloa crus-galli (L.) P. Beauv. var. formosensis Ohwi; assay: Test for Herbicidal Effect in Flooding Treatment (#2), ECHDG at 2-2.5 leaf stage; details: flooding treatment at 2-2.5 leaf stage, dose 0.2 kg/ha, visual observation on day 21
Description: (#2) Test for Herbicidal Effect in Flooding Treatment: Styrol cups each having an opening diameter of 13 cm (about 130 cm^2) were respectively filled with muddy soil (500 ml). Water (about 300 ml) was mixed with the soil such that the soil was flooded. After the soil stood still for 24 hours, Echinochloa crus-galli (L.) P. Beauv. var. formosensis Ohwi was seeded. When the Echinochloa crus-galli (L.) P. Beauv. var. formosensis Ohwi grew to reach 2-2.5 leaf stage, chemical solutions were dropped on the entire surface of treatment sections, so that each section is treated with 1 ml of the respective chemical solution (a dose of 0.2 kg/ha). Each of the chemical solutions was prepared by dissolving associated one of the compounds of the present invention in acetone, followed by dilution with water containing Tween 80 g. After the treatment, the plants were grown in a glasshouse. On day 21, a survey was conducted on the herbicidal activity by visual observation, and evaluation was made according to the following criteria. 0: Growth inhibition effect is less than 10%. 1: Growth inhibition effect is equal to or greater than 10%, and less than 30%. 2; Growth inhibition effect is equal to or greater than 30%, and less than 50%. 3: Growth inhibition effect equal to or greater than 50%, and less than 70%. 4: Growth inhibition effect is equal to or greater than 70%, and less than 90%. 5: Growth inhibition effect is equal to or greater than 90%, or complete withering is achieved. ECHDG=Echinochloa crus-galli (L.) P. Beauv. var. formosensis Ohwi, MONVA=Monochoria vaginalis, SCIJU=Scirpus juncoides, CYMIC=Cyperus microiria. The herbicidal activity of the following comparative compounds A and B (the compounds disclosed Japanese Unexamined Patent Publication No. 2003-096059) were evaluated in a manner pursuant to Test Example 1. (#2).

Monochoria vaginalis = assay: Test for Herbicidal Effect in Flooding Treatment (#1), MONVA; details: for MONVA #1 herbicidal effect (growth inhibition grade): flooding treatment at seeding, dose 2 kg/ha, visual observation on day 21; for MONVA #1 herbicidal effect (growth inhibition rating 0-5): flooding treatment #1
Description: as §1

Scirpus juncoides = assay: Test for Herbicidal Effect in Flooding Treatment (#1), SCIJU; details: for SCIJU #1 herbicidal effect (growth inhibition grade): flooding treatment at seeding, dose 2 kg/ha, visual observation on day 21; for SCIJU #1 herbicidal effect (growth inhibition rating 0-5): flooding treatment #1
Description: as §1

Structure (SMILES) | ECHDG #1 herbicidal effect (growth inhibition grade) [1] | ECHDG (2-2.5L) #2 herbicidal effect (growth inhibition grade) [2] | MONVA #1 herbicidal effect (growth inhibition grade) (Monochoria vaginalis) | SCIJU #1 herbicidal effect (growth inhibition grade) (Scirpus juncoides) | ECHDG #1 herbicidal effect (growth inhibition rating 0-5) [1] | MONVA #1 herbicidal effect (growth inhibition rating 0-5) (Monochoria vaginalis) | SCIJU #1 herbicidal effect (growth inhibition rating 0-5) (Scirpus juncoides)
CC(c1c(F)cccc1OCC(F)F)S(=O)(=O)c1ncc(Cl)s1 (racemic) [Compound 1C-142] | 5 (Growth inhibition effect is equal to or greater than 90%, or complete withering is achieved) | 5 (Growth inhibition effect is equal to or greater than 90%, or complete withering is achieved) | 5 (Growth inhibition effect is equal to or greater than 90%, or complete withering is achieved) | 5 (Growth inhibition effect is equal to or greater than 90%, or complete withering is achieved) |  |  | 
COC(=O)C(c1c(F)cccc1OC(F)F)S(=O)(=O)c1ncc(Cl)s1 (racemic) [Compound 1C-145] | 5 (Growth inhibition effect is equal to or greater than 90%, or complete withering is achieved) | 5 (Growth inhibition effect is equal to or greater than 90%, or complete withering is achieved) | 5 (Growth inhibition effect is equal to or greater than 90%, or complete withering is achieved) | 5 (Growth inhibition effect is equal to or greater than 90%, or complete withering is achieved) |  |  | 
CC(=O)C(c1c(F)cccc1OC(F)F)S(=O)(=O)c1ncc(Cl)s1 (racemic) [Compound 1C-146] | 5 (Growth inhibition effect is equal to or greater than 90%, or complete withering is achieved) | 5 (Growth inhibition effect is equal to or greater than 90%, or complete withering is achieved) | 5 (Growth inhibition effect is equal to or greater than 90%, or complete withering is achieved) | 5 (Growth inhibition effect is equal to or greater than 90%, or complete withering is achieved) |  |  | 
CC(c1c(F)cccc1OCCC(F)(F)F)S(=O)(=O)c1ncc(Cl)s1 (racemic) [Compound 1C-149] | 5 (Growth inhibition effect is equal to or greater than 90%, or complete withering is achieved) | 4 (Growth inhibition effect is equal to or greater than 70%, and less than 90%) | 5 (Growth inhibition effect is equal to or greater than 90%, or complete withering is achieved) | 5 (Growth inhibition effect is equal to or greater than 90%, or complete withering is achieved) |  |  | 
CC(c1c(Cl)cccc1OCCC(F)(F)F)S(=O)(=O)c1ncc(Cl)s1 (racemic) [Compound 1C-150] | 5 (Growth inhibition effect is equal to or greater than 90%, or complete withering is achieved) |  | 5 (Growth inhibition effect is equal to or greater than 90%, or complete withering is achieved) | 5 (Growth inhibition effect is equal to or greater than 90%, or complete withering is achieved) |  |  | 
[O-][S+](Cc1c(F)cccc1OCC(F)F)c1ncc(Cl)s1 (stereo not shown) [Compound 1B-7] |  |  |  |  | 5 (Growth inhibition effect is equal to or greater than 90%, or complete withering is achieved) | 5 (Growth inhibition effect is equal to or greater than 90%, or complete withering is achieved) | 5 (Growth inhibition effect is equal to or greater than 90%, or complete withering is achieved)
[O-][S+](Cc1c(Cl)cccc1OCC(F)(F)C(F)(F)F)c1ncc(Cl)s1 (stereo not shown) [Compound 1B-14] |  |  |  |  | 5 (Growth inhibition effect is equal to or greater than 90%, or complete withering is achieved) | 5 (Growth inhibition effect is equal to or greater than 90%, or complete withering is achieved) | 5 (Growth inhibition effect is equal to or greater than 90%, or complete withering is achieved)
[O-][S+](Cc1c(OCC(F)F)cccc1OCC(F)F)c1ncc(Cl)s1 (stereo not shown) [Compound 1B-15] |  |  |  |  | 3 (Growth inhibition effect equal to or greater than 50%, and less than 70%) | 5 (Growth inhibition effect is equal to or greater than 90%, or complete withering is achieved) | 5 (Growth inhibition effect is equal to or greater than 90%, or complete withering is achieved)
CCOC(=O)C(F)(F)Oc1cccc(Cl)c1CS(=O)(=O)c1ncc(Cl)s1 [Compound 1C-64] | 5 (Growth inhibition effect is equal to or greater than 90%, or complete withering is achieved) |  | 5 (Growth inhibition effect is equal to or greater than 90%, or complete withering is achieved) | 5 (Growth inhibition effect is equal to or greater than 90%, or complete withering is achieved) |  |  | 
O=S(=O)(Cc1c(OCC(F)F)cccc1OCC(F)F)c1ncc(Cl)s1 [Compound 1C-129] | 5 (Growth inhibition effect is equal to or greater than 90%, or complete withering is achieved) |  | 5 (Growth inhibition effect is equal to or greater than 90%, or complete withering is achieved) | 4 (Growth inhibition effect is equal to or greater than 70%, and less than 90%) |  |  | 
CCOc1ccc(Cl)cc1C(F)(F)S(=O)(=O)c1nc(F)c(Cl)s1 [Compound 1C-139] |  | 1 (Growth inhibition effect is equal to or greater than 10%, and less than 30%) | 5 (Growth inhibition effect is equal to or greater than 90%, or complete withering is achieved) | 5 (Growth inhibition effect is equal to or greater than 90%, or complete withering is achieved) |  |  | 
COc1ccc(Cl)c(CS(=O)(=O)c2ncc(C(F)(F)F)s2)c1F [Compound 1C-167] | 5 (Growth inhibition effect is equal to or greater than 90%, or complete withering is achieved) |  | 5 (Growth inhibition effect is equal to or greater than 90%, or complete withering is achieved) | 5 (Growth inhibition effect is equal to or greater than 90%, or complete withering is achieved) |  |  | 
CS(=O)(=O)c1ccc(CS(=O)(=O)c2ncc(Cl)s2)cc1 [Compound 1C-168] | 5 (Growth inhibition effect is equal to or greater than 90%, or complete withering is achieved) |  | 5 (Growth inhibition effect is equal to or greater than 90%, or complete withering is achieved) | 5 (Growth inhibition effect is equal to or greater than 90%, or complete withering is achieved) |  |  | 
C#CCN(C)c1cccc(F)c1CS(=O)(=O)c1ncc(Cl)s1 [Compound 1C-169] | 5 (Growth inhibition effect is equal to or greater than 90%, or complete withering is achieved) |  | 5 (Growth inhibition effect is equal to or greater than 90%, or complete withering is achieved) | 5 (Growth inhibition effect is equal to or greater than 90%, or complete withering is achieved) |  |  | 

Reference: patent publication US20200060276A1, “THIAZOLE COMPOUND AND HERBICIDE” (OAT Agrio Co., Ltd., priority 2017, published 2020)
